Structures can show the parent of a compound that is named as a salt.
Tests used:
[1] = target: human LSD1 (Homo sapiens (Human), UniProt O60341); assay: Experiment 1B: in vitro LSD1 enzyme activity, enzyme-coupled fluorescence (HRP/Amplex Red), H3(1-21)K4me2 peptide 10 μM (Reaction Biology); format: biochemical; settings: histone H3(1-21)K4me2 peptide 10 μM
Method: Experiment 1B: Evaluation of Enzyme Activity
Testing unit: Reaction Biology Corp., USA.
The purpose of the assay was to test the in vitro inhibitory activity of the compounds against LSD1. The enzyme used in the assay was human LSD1, and the standard substrate was histone H3(1-21)K4me2 peptide (10 μM). The activity of the compounds was determined by the enzyme-coupling fluorescent method by the combined detection of H2O2 generated after the reaction of LSD1 by horseradish peroxidase (HRP) and the fluorescent reagent Amplex Red. Starting from 10 μM, the compounds were 3-fold diluted to detect the IC50 values of the compounds at 10 concentrations. The enzyme and substrate were incubated for 30 minutes before the compound was added to the substrate to start the reaction. Fluorescence detector: EnVision, excitation wavelength: Ex/Em=535/590 nM.

[2] = test system: NCI-H1417 cells; assay: Experiment 2: inhibition of NCI-H1417 cell proliferation (CellTiter-Glo, 10 days); format: cell-based; settings: Homo sapiens, 240 h, 10 days incubation
Method: Experiment 2: Evaluation of Inhibitory Activity on NCI-H1417 Cell Proliferation
Experimental purpose: To test the inhibitory activity of test compounds on NCI-H1417 cell proliferation.
Experimental materials: RPMI 1640 medium, fetal bovine serum, Promega CellTiter-Glo reagent. The NCI-H1417 cell line was purchased from ATCC. Envision multilabel plate reader (PerkinElmer).
Experimental method: The compounds were dissolved to 10 mM and 5-fold diluted with DMSO in the compound plates, starting with a concentration of 2 mM. 3-fold serial dilution was performed with Bravo to 10 concentrations. Then 250 nL of the compound solution was transferred to the upper and lower double duplicate wells of a blank 384 cell plate with Echo. To each well containing the transferred 250 nL of DMSO/compound was added a cell suspension of 1000 cells/50 μL per well, and the compound was diluted 200-fold, i.e., resulting in an initial working concentration of 10 μM. The cell plate was incubated in a carbon dioxide incubator for 10 days. To the cell plate was added 25 μL of Promega CellTiter-Glo reagent per well and the mixture was shaken for 10 minutes at room temperature to stabilize the luminescence signal. Readings were performed on a PerkinElmer Envision multilabel plate reader.
Data analysis: Raw data were converted into inhibition rate using the formula: (Max−Ratio)/(Max−Min)*100%. The IC50 values could then be derived from four-parameter curve fitting. (derived from 205 mode in XLFIT5, iDBS)
The compounds were tested for inhibitory activity of compounds on NCI-H1417 cell proliferation, and the results are shown in Table 3.

Cn1nnc2cc(-c3sc(C(=O)N4C5CCC4C(N)C5)cc3-c3ccc(C#N)c(F)c3)ccc21 (centres unmarked) [Compound 14]
IC50 [1]: 5.37 nM | IC50 [2]: 0.54 nM

COc1ccc(-c2sc(C(=O)N3CCCN(CC#N)CC3)cc2-c2ccc(C#N)c(F)c2)cc1F [Compound 40]
IC50 [1]: 95.6 nM | IC50 [2]: 18.7 nM

CC(C)(O)c1ccc(-c2sc(C(=O)N3CCC[C@@H](N)C3)cc2-c2ccc(C#N)c(F)c2)cc1 [Compound 50]
IC50 [1]: 28.3 nM | IC50 [2]: 9.19 nM

CC(C)(O)Cn1ncc2cc(-c3sc(C(=O)N4CCC[C@@H](N)C4)cc3-c3ccc(C#N)c(F)c3)ccc21 [Compound 57]
IC50 [1]: 10.4 nM | IC50 [2]: 1.53 nM

CC(C)(O)Cn1cc2cc(-c3sc(C(=O)N4CCC[C@@H](N)C4)cc3-c3ccc(C#N)c(F)c3)ccc2n1 [Compound 58]
IC50 [1]: 20.4 nM | IC50 [2]: 3.56 nM

CC(C)(O)Cn1ncc2cc(-c3sc(C(=O)N4CCC[C@@H](N)C4)cc3-c3ccc(C#N)c(F)c3)cnc21 [Compound 60]
IC50 [1]: 18.4 nM | IC50 [2]: 2.36 nM

N#Cc1ccc(-c2cc(C(=O)N3CCC[C@@H](N)C3)sc2-c2ccc3nccn3c2)cc1F [Compound 74]
IC50 [1]: 33.2 nM

N#Cc1ccc(-c2cc(C(=O)N3CCC[C@@H](N)C3)sc2-c2ccn3nccc3c2)cc1F [Compound 75]
IC50 [1]: 28.9 nM | IC50 [2]: 28 nM

N#Cc1ccc(-c2cc(C(=O)N3CCC[C@@H](N)C3)sc2-c2ccn3cncc3c2)cc1F [Compound 78]
IC50 [1]: 47.4 nM

N#Cc1ccc(-c2cc(C(=O)N3CCC[C@@H](N)C3)sc2-c2ccn3ccnc3c2)cc1F [Compound 84]
IC50 [1]: 13.2 nM | IC50 [2]: 25.9 nM

CN[C@@H]1CCCN(C(=O)c2cc(-c3ccc(C#N)c(F)c3)c(-c3ccc(N4CC(C)(O)C4)cc3)s2)C1 [Compound 122]
IC50 [1]: 13.1 nM | IC50 [2]: 9.83 nM

COc1ccc(-c2sc(C(=O)N3CCC[C@H](N)C3)cc2-c2ccc(C#N)c(F)c2)cc1F [Hydrochloride of compound 18]
IC50 [1]: 6.6 nM | IC50 [2]: 18.2 nM

COc1ccc(-c2sc(C(=O)N3CC[C@H](F)[C@@H](N)C3)cc2-c2ccc(C#N)c(F)c2)cc1F [Hydrochloride of compound 19]
IC50 [1]: 64.8 nM

COc1ccc(-c2sc(C(=O)N3CC[C@@H](F)[C@@H](N)C3)cc2-c2ccc(C#N)c(F)c2)cc1F [Hydrochloride of compound 20]
IC50 [1]: 19.4 nM | IC50 [2]: 32.3 nM

COc1ccc(-c2sc(C(=O)N3CCC[C@@H](N)C3)cc2-c2ccc(C#N)c(F)c2)c(F)c1 [Hydrochloride of compound 21]
IC50 [1]: 19.4 nM | IC50 [2]: 6.83 nM

COc1ccc(-c2sc(C(=O)N3CCC4(CC3)COCC4N)cc2-c2ccc(C#N)c(F)c2)cc1F (centres unmarked) [Hydrochloride of compound 23]
IC50 [1]: 76.8 nM

COc1ccc(-c2sc(C(=O)N3CCC(N(C)C)C3)cc2-c2ccc(C#N)c(F)c2)cc1F (centres unmarked) [Hydrochloride of compound 24]
IC50 [1]: 70.9 nM | IC50 [2]: 30.6 nM

COc1ccc(-c2sc(C(=O)N3CCCNCC3C)cc2-c2ccc(C#N)c(F)c2)cc1F (centres unmarked) [Hydrochloride of compound 25]
IC50 [1]: 63.9 nM

COc1ccc(-c2sc(C(=O)N3CCCC(N(C)C)C3)cc2-c2ccc(C#N)c(F)c2)cc1F (centres unmarked) [Hydrochloride of compound 26]
IC50 [1]: 19.6 nM | IC50 [2]: 6.87 nM

COc1ccc(-c2sc(C(=O)N[C@@H]3CCNC3)cc2-c2ccc(C#N)c(F)c2)cc1F [Hydrochloride of compound 27]
IC50 [1]: 48.2 nM

COc1ccc(-c2sc(C(=O)N3CCNC(C)CC3)cc2-c2ccc(C#N)c(F)c2)cc1F (centres unmarked) [Hydrochloride of compound 29]
IC50 [1]: 29.7 nM | IC50 [2]: 17.2 nM

N#Cc1ccc(-c2cc(C(=O)N3CCC[C@@H](N)C3)sc2-c2ccc3[nH]c(=O)oc3c2)cc1F [Hydrochloride of compound 31]
IC50 [1]: 26.7 nM | IC50 [2]: 11.3 nM

N#Cc1ccc(-c2cc(C(=O)N3CCC[C@@H](N)C3)sc2-c2ccnc(N)c2)cc1F [Hydrochloride of compound 33]
IC50 [1]: 38 nM | IC50 [2]: 16.2 nM

Cn1c(=O)oc2ccc(-c3sc(C(=O)N4CCC[C@@H](N)C4)cc3-c3ccc(C#N)c(F)c3)cc21 [Hydrochloride of compound 34]
IC50 [1]: 36.5 nM | IC50 [2]: 9.92 nM

CN1Cc2ccc(-c3sc(C(=O)N4CCC[C@@H](N)C4)cc3-c3ccc(C#N)c(F)c3)cc2C1=O [Hydrochloride of compound 35]
IC50 [1]: 24.6 nM | IC50 [2]: 8.84 nM

N#Cc1ccc(-c2cc(C(=O)N3CCC[C@@H](N)C3)sc2-c2ccc3c(c2)OCO3)cc1F [Hydrochloride of compound 37]
IC50 [1]: 1.73 nM | IC50 [2]: 0.93 nM

CS(=O)(=O)c1ccc(-c2sc(C(=O)N3CCC[C@@H](N)C3)cc2-c2ccc(C#N)c(F)c2)cc1 [Hydrochloride of compound 44]
IC50 [1]: 70.6 nM | IC50 [2]: 8.87 nM

CC(C)S(=O)(=O)c1ccc(-c2sc(C(=O)N3CCC[C@@H](N)C3)cc2-c2ccc(C#N)c(F)c2)cc1 [Hydrochloride of compound 47]
IC50 [1]: 48.8 nM | IC50 [2]: 10.2 nM

N#Cc1ccc(-c2cc(C(=O)N3CCC[C@@H](N)C3)sc2-c2ccc(N)nc2)cc1F [Hydrochloride of compound 49]
IC50 [1]: 101 nM

Cn1cc(-c2sc(C(=O)N3CCC[C@@H](N)C3)cc2-c2ccc(C#N)c(F)c2)cn1 [Hydrochloride of compound 52]
IC50 [1]: 251 nM

N#Cc1ccc(-c2cc(C(=O)N3CCC[C@@H](N)C3)sc2-c2ccc3n[nH]cc3c2)cc1F [Hydrochloride of compound 63]
IC50 [2]: 28.6 nM

N#Cc1ccc(-c2cc(C(=O)N3CCC[C@@H](N)C3)sc2-c2ccc3nn(C4CCOCC4)cc3c2)cc1F [Hydrochloride of compound 64]
IC50 [1]: 29.6 nM | IC50 [2]: 16.2 nM

Cn1cc2ccc(-c3sc(C(=O)N4CCC[C@@H](N)C4)cc3-c3ccc(C#N)c(F)c3)cc2n1 [Hydrochloride of compound 65]
IC50 [2]: 11.1 nM

N#Cc1ccc(-c2cc(C(=O)N3CCC[C@@H](N)C3)sc2-c2ccc3ncncc3c2)cc1F [Hydrochloride of compound 66]
IC50 [1]: 73.4 nM

Cc1c2cc(-c3sc(C(=O)N4CCC[C@@H](N)C4)cc3-c3ccc(C#N)c(F)c3)ccc2nn1C [Hydrochloride of compound 71]
IC50 [2]: 0.64 nM

CN(C)[C@@H]1CCCN(C(=O)c2cc(-c3ccc(C#N)c(F)c3)c(-c3ccc4nn(C(C)(C)CO)cc4c3)s2)C1 [Hydrochloride of compound 105]
IC50 [2]: 6.14 nM

CN(C)[C@@H]1CCCN(C(=O)c2cc(-c3ccc(C#N)c(F)c3)c(-c3cc4nnn(CC(C)(C)O)c4c(F)c3F)s2)C1 [Hydrochloride of compound 106]
IC50 [2]: 0.19 nM

CN[C@@H]1CCCN(C(=O)c2cc(-c3ccc(C#N)c(F)c3)c(-c3ccc(N4CC[C@H](O)C4)cc3)s2)C1 [Hydrochloride of compound 108]
IC50 [2]: 2.11 nM

CN[C@@H]1CCCN(C(=O)c2cc(-c3ccc(C#N)c(F)c3)c(-c3ccc(N4CC[C@@H](O)C4)cc3F)s2)C1 [Hydrochloride of compound 113]
IC50 [2]: 3.98 nM

N#Cc1ccc(-c2cc(C(=O)N3CCC[C@@H](N)C3)sc2-c2ccc(N3CC[C@H](O)C3)cc2F)cc1F [Hydrochloride of compound 114]
IC50 [2]: 5.18 nM

CN[C@@H]1CCCN(C(=O)c2cc(-c3ccc(C#N)c(F)c3)c(-c3ccc(N4CC[C@H](O)C4)cc3F)s2)C1 [Hydrochloride of compound 115]
IC50 [2]: 1.94 nM

N#Cc1ccc(-c2cc(C(=O)N3CCCNCC3)sc2-c2ccc(N3CC[C@H](O)C3)cc2)cc1F [Hydrochloride of compound 116]
IC50 [1]: 9.27 nM

— patent US20240199571A1, “THIOPHENE COMPOUND AND APPLICATION THEREOF” (MEDSHINE DISCOVERY INC., priority 2021, published 2024)
